Reference: ChEMBL document CHEMBL1132779, “The design and synthesis of novel NK1/NK2 dual antagonists” (Bioorg Med Chem Lett, 2000)

What was measured:
Substance-P receptor = Substance-P receptor (Homo sapiens, UniProt P25103); test: Binding affinity towards Tachykinin receptor 1 in CHO cells using [3H]-Sar SP as radioligand; assay type: cell-based
Substance-K receptor = target: T1, Substance-K receptor (Homo sapiens, UniProt P21452); test: Binding affinity towards Tachykinin receptor 2 in CHO cells using [3H]-neurokinin A as radioligand; assay type: cell-based
T1 sequence (P21452 whole entry): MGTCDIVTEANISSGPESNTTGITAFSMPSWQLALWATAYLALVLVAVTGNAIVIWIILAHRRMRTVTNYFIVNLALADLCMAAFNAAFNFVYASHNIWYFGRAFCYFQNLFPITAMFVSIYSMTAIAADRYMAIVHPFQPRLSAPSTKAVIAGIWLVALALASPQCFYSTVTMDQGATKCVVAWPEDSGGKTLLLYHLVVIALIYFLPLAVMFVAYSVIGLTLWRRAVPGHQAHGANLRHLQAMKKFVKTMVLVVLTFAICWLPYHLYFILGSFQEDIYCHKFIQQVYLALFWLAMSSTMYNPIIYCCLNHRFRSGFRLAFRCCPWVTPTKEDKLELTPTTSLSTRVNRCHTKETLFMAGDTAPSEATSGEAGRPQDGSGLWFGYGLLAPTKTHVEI

[1] = target: T2, Substance-K receptor (Homo sapiens) (UniProt P21452); conditions: 0.1 uM
T2 sequence (whole entry): T1 sequence (P21452 whole entry)
Description: Inhibitory activity against Tachykinin receptor 2 at a concentration of 0.1 uM

[2] = target: T2, Substance-K receptor (Homo sapiens); conditions: 1 uM
Description: Inhibitory activity against Tachykinin receptor 2 at a concentration of 1 uM

Chain of Substance-P receptor (P25103 whole entry): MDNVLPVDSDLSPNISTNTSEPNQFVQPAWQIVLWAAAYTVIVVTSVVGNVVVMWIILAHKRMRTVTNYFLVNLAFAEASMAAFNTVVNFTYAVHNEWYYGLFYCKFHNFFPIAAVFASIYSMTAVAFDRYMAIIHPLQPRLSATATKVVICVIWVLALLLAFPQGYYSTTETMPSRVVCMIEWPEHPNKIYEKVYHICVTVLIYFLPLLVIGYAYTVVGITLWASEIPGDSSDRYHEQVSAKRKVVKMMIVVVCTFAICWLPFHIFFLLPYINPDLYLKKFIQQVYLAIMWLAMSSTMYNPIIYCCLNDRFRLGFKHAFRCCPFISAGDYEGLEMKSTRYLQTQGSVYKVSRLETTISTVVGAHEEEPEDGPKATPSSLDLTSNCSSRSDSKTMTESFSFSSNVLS

Ki (Substance-P receptor) | Ki (Substance-K receptor) | inhibition [1] | Structure (SMILES) | inhibition [2]
4 nM | 34 nM | – | NC(=O)CNC(COCc1cc(C(F)(F)F)cc(C(F)(F)F)c1)C(CCN1CCC(O)(c2ccccc2)CC1)c1ccc(Cl)c(Cl)c1 (configuration not stated) | –
– | 0.5 nM | – | CC(=O)NC1(c2ccccc2)CCN(CC[C@H](CN(C)C(=O)c2ccccc2)c2ccc(Cl)c(Cl)c2)CC1 [SAREDUTANT] | –
5 nM | – | 10% | NC(=O)CN[C@H](COCc1cc(C(F)(F)F)cc(C(F)(F)F)c1)[C@@H](CCN1CCC(O)(c2ccccc2)CC1)c1ccc(Cl)c(Cl)c1 | –
34 nM | 358 nM | – | O/N=C(/COCc1cc(C(F)(F)F)cc(C(F)(F)F)c1)C(CCN1CCC(O)(c2ccccc2)CC1)c1ccc(Cl)c(Cl)c1 (configuration not stated) | –
0.7 nM | – | 27% | NC(=O)CN[C@@H](COCc1cc(C(F)(F)F)cc(C(F)(F)F)c1)[C@@H](CCN1CCC(O)(c2ccccc2)CC1)c1ccc(Cl)c(Cl)c1 | –
0.9 nM | – | – | NC(=O)CN[C@H](COCc1cc(C(F)(F)F)cc(C(F)(F)F)c1)C(c1ccccc1)c1ccccc1 | –
24 nM | 122 nM | – | O/N=C(\COCc1cc(C(F)(F)F)cc(C(F)(F)F)c1)C(CCN1CCC(O)(c2ccccc2)CC1)c1ccc(Cl)c(Cl)c1 (configuration not stated) | –
9 nM | 34 nM | – | NC(=O)CN[C@@H](COCc1cc(C(F)(F)F)cc(C(F)(F)F)c1)[C@H](CCN1CCC(O)(c2ccccc2)CC1)c1ccc(Cl)c(Cl)c1 | –

Structure (SMILES) | Ki (Substance-P receptor) | Ki (Substance-K receptor) | inhibition [1] | inhibition [2]
CO/N=C(\COCc1cc(C(F)(F)F)cc(C(F)(F)F)c1)[C@@H](CCN1CCC(O)(c2ccccc2)CC1)c1ccc(Cl)c(Cl)c1 | 33 nM | 397 nM | – | –
CO/N=C(/COCc1cc(C(F)(F)F)cc(C(F)(F)F)c1)C(CCN1CCC(O)(c2ccccc2)CC1)c1ccc(Cl)c(Cl)c1 (configuration not stated) | 25 nM | – | – | 35%
CO/N=C(\COCc1cc(C(F)(F)F)cc(C(F)(F)F)c1)[C@H](CCN1CCC(O)(c2ccccc2)CC1)c1ccc(Cl)c(Cl)c1 | 20 nM | 7 nM | – | –
CO/N=C(\COCc1cc(C(F)(F)F)cc(C(F)(F)F)c1)C(CCN1CCC(O)(c2ccccc2)CC1)c1ccc(Cl)c(Cl)c1 (configuration not stated) | 25 nM | 21 nM | – | –
